The subject of one experiment is T47D cells. The experiment can be described thus: Cellular growth inhibition assay for T47D cells (CellTiter-Glo, 72 hours). It counts as cell-based, human. The conditions noted are these: Homo sapiens, T47D, 72 h, 72 hours treatment. In outline: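 Luminescence from CellTiter-Glo 2.0 after 72 h of compound exposure gives the viability signal. Cells grew in insulin-supplemented (0.2 units/mL) DMEM with 10% FBS and were treated one day after seeding at 0.5% DMSO. GI50 values come from four-parameter nonlinear regression.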
Background: Cellular ATP, detected with luciferase, serves as a proxy for viable cell number.

Experiment [1] deals with T-Rex 293 cell line SC cells lacking increased expression of progesterone receptor isoform B protein. The experiment can be described thus: Cellular growth inhibition assay, T-Rex 293 SC cells without doxycycline (CellTiter-Glo, 72 hours). It counts as cell-based. The settings on record: T-Rex 293 SC cells not exposed to doxycycline. On the procedure: The following types of cells were prepared for this experiment: (i) a T-Rex 293 cell line having increased expression of progesterone receptor isoform B protein due to exposure to doxycycline and (ii) a T-Rex 293 cell line lacking increased expression of progesterone receptor isoform B protein. Ability of the test compounds to inhibit proliferation of the foregoing cell types was evaluated according to the procedures set forth below.
The doxycycline-inducible progesterone receptor isoform B protein expressing cell line was established using the following protocol: T-Rex 293 cells were purchased from Invitrogen (Cat #R71007) and transfected using Lipofectamine 2000 with the wild-type progesterone receptor B protein sequence cloned into the pcDNA4/TO vector. Transfected cells were selected using 400 μg/mL Zeocin (Invitrogen Cat #R25001). Following selection, single clones were raised and maintained in Dulbecco's Modified Eagle Medium (DMEM) supplemented with 10% w/w Tetracycline-free fetal bovine serum (FBS) and 250 μg/mL Zeocin. Clones were analyzed for expression of progesterone receptor isoform B protein in the presence and absence of 10 ng/mL doxycycline (Sigma Cat #D9891), and a single doxycycline-inducible clone (hereinafter “SC”) was selected for use in downstream assays.
The SC cells were seeded on poly-D-lysine coated, black clear-bottom 384-well plates at 2500/well, in 25 μL Phenol Red Free Dulbecco's Modified Eagle Medium (DMEM) supplemented with 10% w/w charcoal-dextran treated fetal bovine serum (FBS) and 1% w/w pen-strep, with or without 10 ng/mL doxycycline. Pen-Strep is a commercially available mixture of penicillin G and streptomycin, which is used in mammalian cell culture media to prevent bacterial contamination. Phenol Red Free Dulbecco's Modified Eagle Medium (DMEM) supplemented with 10% w/w charcoal-dextran treated fetal bovine serum (FBS) and 1% w/w pen-strep, with or without 10 ng/mL doxycycline is herein referred to as Treatment Medium. Following seeding of cells in the plates, the plates were spun at 300×g for 30 seconds, then equilibrated to room temperature for 30 minutes, and then deposited in a humidified tissue culture incubator maintained at 37° C. with 5% CO2.
At 24 hours after seeding of the cells, dilutions of test compound were prepared in DMSO and dissolved in Treatment Medium, to achieve a final DMSO concentration of 0.5% w/w, thereby providing the Test Compound Solution. A 25 μL aliquot of the Test Compound Solution was added to cells in the well plates. An equal volume of a solution containing DMSO and Treatment Medium was used as a negative control. Following treatment of cells with Test Compound Solution or said equal volume of a solution containing DMSO and Treatment Medium, the plates were spun at 300×g for 30 seconds, and then left in an incubator for 72 hours.
At the end of the treatment duration, cell viability was quantified with CellTiter-Glo 2.0 reagent (Promega Cat #G9243). For this purpose, plates were equilibrated to room temperature for 30 minutes, and then 25 μL of CellTiter-Glo 2.0 reagent was added to cells in the plate wells. Plates were then agitated on a shaker for two minutes at 500 rpm and subsequently incubated at room temperature for 10 minutes. Following incubation, the plates were spun at 3000×g for 30 seconds, then sealed with an optical adhesive cover, and luminescence readings were measured with an EnVision Plate Reader (Perkin Elmer).
Data was normalized using zero luminescence for baseline. A four-parameter non-linear regression curve fit was applied to dose-response data in GraphPad Prism data analysis software to determine the half-maximal growth inhibitory concentration (GI50) for each test compound.

Some results are limits rather than exact numbers.

Data on nine molecules can be found in patent publication US20260109707A1, “HETEROBIFUNCTIONAL COMPOUNDS AND METHODS OF TREATING DISEASE” (Halda Therapeutics OpCo. Inc., priority 2022, published 2026).

Turning to `Cc1sc2c(c1C)C(c1ccc(Cl)cc1)=N[C@@H](CC(=O)NCCOC1CCN(c3ccc(C(=O)N[C@H]4CC[C@H](Oc5ccc(C#N)c(Cl)c5)CC4)nn3)CC1)c1nnc(C)n1-2` [I-1, N-[4-(3-chloro-4-cyano-phenoxy)cyclohexyl]-6-[4-[2-[[2-[(9S)-7-(4-chlorophenyl)-4,5,13-trimethyl-3-thia-1,8,11,12-tetrazatricyclo[8.3.0.0^2,6]trideca-2(6),4,7,10,12-pentaen-9-yl]acetyl]amino]ethoxy]-1-piperidyl]pyridazine-3-carboxamide], the GI50 (in the experiment on T47D cells; in experiment [1]) was < 500 nM in each case.
With `Cc1sc2c(c1C)C(c1ccc(Cl)cc1)=N[C@@H](CC(=O)NCCOCCOCCOC1CCN(c3ccc(C(=O)N[C@H]4CC[C@H](Oc5ccc(C#N)c(Cl)c5)CC4)nn3)CC1)c1nnc(C)n1-2` [I-2, N-[4-(3-chloro-4-cyano-phenoxy)cyclohexyl]-6-[4-[2-[2-[2-[[2-[(9S)-7-(4-chlorophenyl)-4,5,13-trimethyl-3-thia-1,8,11,12-tetrazatricyclo[8.3.0.0^2,6]trideca-2(6),4,7,10,12-pentaen-9-yl]acetyl]amino]ethoxy]ethoxy]ethoxy]-1-piperidyl]pyridazine-3-carboxamide], the GI50 (in general, the concentration giving 50% growth inhibition) with T47D cells is 1500 to 3000 nM; in experiment [1], > 3000 nM.
The matching figures for `CCNC(=O)C[C@@H]1N=C(c2ccc(OCCOC3CCN(c4ccc(C(=O)N[C@H]5CC[C@H](Oc6ccc(C#N)c(Cl)c6)CC5)nn4)CC3)cc2)c2c(sc(C)c2C)-n2c(C)nnc21` [I-8]: < 500 nM and < 500 nM.
As for `CCNC(=O)C[C@@H]1N=C(c2ccc(OCCOCCOC3CCN(c4ccc(C(=O)N[C@H]5CC[C@H](Oc6ccc(C#N)c(Cl)c6)CC5)nn4)CC3)cc2)c2c(sc(C)c2C)-n2c(C)nnc21` [I-10], the GI50 (in the experiment on T47D cells; in experiment [1]) was < 500 nM in each case.
For `CCNC(=O)C[C@@H]1N=C(c2ccc(CCCOC3CCN(c4ccc(C(=O)N[C@H]5CC[C@H](Oc6ccc(C#N)c(Cl)c6)CC5)nn4)CC3)cc2)c2c(sc(C)c2C)-n2c(C)nnc21` [I-17], the GI50 in the experiment on T47D cells was < 500 nM.
For `CCNC(=O)C[C@@H]1N=C(c2ccc(CC3CCN(c4ccc(C(=O)N[C@H]5CC[C@H](Oc6ccc(C#N)c(Cl)c6)CC5)nn4)CC3)cc2)c2c(sc(C)c2C)-n2c(C)nnc21` [I-20], the GI50 (in the experiment with T47D cells; in experiment [1]) was 500 to 1500 nM in each case.
On to `CCNC(=O)C[C@@H]1N=C(c2ccc(N3CC4(C3)CN(c3ccc(C(=O)N[C@H]5CC[C@H](Oc6ccc(C#N)c(Cl)c6)CC5)nn3)C4)cc2)c2c(sc(C)c2C)-n2c(C)nnc21` [I-24], for which the GI50 was < 500 nM with T47D cells and 500 to 1500 nM in experiment [1].
With `CCNC(=O)C[C@@H]1N=C(c2ccc(OCC3CN(c4ccc(C(=O)N[C@H]5CC[C@H](Oc6ccc(C#N)c(Cl)c6)CC5)nn4)C3)cc2)c2c(sc(C)c2C)-n2c(C)nnc21` [I-29], the GI50 in the experiment with T47D cells was < 500 nM.
Consider `CCNC(=O)C[C@@H]1N=C(c2ccc(OCCCN(C)c3ccc(C(=O)N[C@H]4CC[C@H](Oc5ccc(C#N)c(Cl)c5)CC4)nn3)cc2)c2c(sc(C)c2C)-n2c(C)nnc21` [I-48], for which the GI50 with T47D cells was 500 to 1500 nM.
